Measurements taken from US12427210B2, “Compounds comprising a fibroblast activation protein ligand and use thereof” (priority 2019, dated 2025).
Where two headings read alike, the source gives them in different places. Numbered stars: 1 amine (or outer) side, 2 acyl side, 3 side chain; on linkers, the order of the positions; unused ones are H or OH. Bridge positions count the residues as written; N and C are the ends. Peptide text beside a SMILES is read from it. * marks the point of attachment. X1 = O=C(O)CN1CCN(CC(=O)O)CCN(CC(=O)N2CCN(Cc3cc(C[*:1])cc(C[*:2])c3)CC2)CCN(CC(=O)O)CC1; Hexanoyl = CCCCCC(=O)*

Columns and labels:
[1] = tested on: Ca2+ channel (L, dihydropyridine site); conditions: 10 μM
[2] = tested on: serine protease NS3 (a.a. 3-181) from Hepatitis C virus genotype 1b
[3] = tested on: serine protease NS3 (a.a. 3-181) from Hepatitis C virus genotype 1b (mutant D168V)
[4] = tested on: serine protease NS3 (a.a. 3-181) from Hepatitis C virus genotype 1b (mutant R155Q)
beta 2 (h) = beta 2 (h) (Homo sapiens, UniProt P07550); assay: biochemical; conditions: read-out: % Inhibition of Specific Binding
CB1 (h) = CB1 (h) (Homo sapiens, UniProt P21554); assay: biochemical; conditions: read-out: % Inhibition of Specific Binding
CB2 (h) = CB2 (h) (Homo sapiens, UniProt P34972); assay: biochemical; conditions: read-out: % Inhibition of Specific Binding
D1 (h) = D1 (h) (Homo sapiens, UniProt P21728); assay: biochemical; conditions: read-out: % Inhibition of Specific Binding
ETA (h) = ETA (h) (Homo sapiens, UniProt P25101); assay: biochemical; conditions: read-out: % Inhibition of Specific Binding
M1 (h) = M1 (h) (Homo sapiens, UniProt P11229); assay: biochemical; conditions: read-out: % Inhibition of Specific Binding
M2 (h) = M2 (h) (Homo sapiens, UniProt P08172); assay: biochemical; conditions: read-out: % Inhibition of Specific Binding
M3 (h) = M3 (h) (Homo sapiens, UniProt P20309); assay: biochemical; conditions: read-out: % Inhibition of Specific Binding
[5] = target: N neuronal alpha 4beta 2 (h) (Homo sapiens, UniProt P17787+P43681); assay: biochemical; conditions: read-out: % Inhibition of Specific Binding
mu (MOP) (h) = mu (MOP) (h) (Homo sapiens, UniProt P35372); assay: biochemical; conditions: read-out: % Inhibition of Specific Binding
5-HT1A (h) = 5-HT1A (h) (Homo sapiens, UniProt P08908); assay: biochemical; conditions: read-out: % Inhibition of Specific Binding
5-HT3 (h) = 5-HT3 (h) (Homo sapiens, UniProt P46098); assay: biochemical; conditions: read-out: % Inhibition of Specific Binding
GR (h) = GR (h) (Homo sapiens, UniProt P04150); assay: biochemical; conditions: read-out: % Inhibition of Specific Binding
V1a (h) = V1a (h) (Homo sapiens, UniProt P37288); assay: biochemical; conditions: read-out: % Inhibition of Specific Binding
[6] = target: norepinephrine transporter (h) (Homo sapiens, UniProt P23975); assay: biochemical; conditions: read-out: % Inhibition of Specific Binding
5-HT transporter (h) = 5-HT transporter (h) (Homo sapiens, UniProt P31645); assay: biochemical; conditions: read-out: % Inhibition of Specific Binding
COX2(h) = COX2(h) (Homo sapiens, UniProt P35354); assay: biochemical; conditions: read-out: % Inhibition of Specific Binding
Activated Protein C = Activated Protein C (Homo sapiens, UniProt P04070); assay: biochemical; conditions: read-out: Percentage inhibition (%)
Caspase-3 = target: T1, Caspase-3 (Homo sapiens, UniProt P42574); assay: biochemical; conditions: read-out: Percentage inhibition (%)
T1 sequence (P42574 29-175 limits assumed): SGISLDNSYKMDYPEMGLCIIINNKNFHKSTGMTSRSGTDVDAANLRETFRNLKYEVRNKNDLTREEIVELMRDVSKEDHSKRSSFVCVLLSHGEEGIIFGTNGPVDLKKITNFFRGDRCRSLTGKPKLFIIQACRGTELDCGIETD
T1 sequence (P42574 176-277 limits assumed): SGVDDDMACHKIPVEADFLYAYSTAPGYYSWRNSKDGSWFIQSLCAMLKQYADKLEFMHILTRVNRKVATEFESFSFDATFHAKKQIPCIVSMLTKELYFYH

[7] = target: Ubiquitin carboxyl-terminal hydrolase 14 (Homo sapiens, UniProt P54578); assay: biochemical; conditions: read-out: Percentage inhibition (%)
DPP8 = DPP8 (Homo sapiens, UniProt Q6V1X1); assay: biochemical; conditions: read-out: Percentage inhibition (%)
[8] = target: serine protease NS3 (a.a. 3-181) from Hepatitis C virus genotype 2a (Hepatitis C virus genotype 2a, UniProt Q99IB8); assay: biochemical; conditions: read-out: Percentage inhibition (%)
[9] = target: T2, Matrix metalloprotease 9 (mutant Q279R) (Homo sapiens, UniProt P14780, Q279R); assay: biochemical; conditions: read-out: Percentage inhibition (%)
T2 sequence (P14780 94-707 Q279R): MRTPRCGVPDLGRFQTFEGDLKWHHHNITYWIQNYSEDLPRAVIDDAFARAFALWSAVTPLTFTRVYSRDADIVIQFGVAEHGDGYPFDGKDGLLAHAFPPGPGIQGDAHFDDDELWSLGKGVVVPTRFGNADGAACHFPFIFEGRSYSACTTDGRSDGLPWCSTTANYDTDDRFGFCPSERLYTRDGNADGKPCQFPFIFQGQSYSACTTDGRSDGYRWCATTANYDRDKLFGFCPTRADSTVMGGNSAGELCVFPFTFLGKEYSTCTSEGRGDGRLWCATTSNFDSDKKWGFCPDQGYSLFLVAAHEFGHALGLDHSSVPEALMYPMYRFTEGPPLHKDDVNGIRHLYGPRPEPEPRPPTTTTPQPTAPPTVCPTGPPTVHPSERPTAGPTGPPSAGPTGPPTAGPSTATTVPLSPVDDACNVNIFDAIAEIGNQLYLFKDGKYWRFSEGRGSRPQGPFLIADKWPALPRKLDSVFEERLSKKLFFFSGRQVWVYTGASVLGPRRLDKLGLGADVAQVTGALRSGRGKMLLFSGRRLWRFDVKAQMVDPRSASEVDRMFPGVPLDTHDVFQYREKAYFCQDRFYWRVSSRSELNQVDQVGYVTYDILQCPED

Sequence of DPP8 (Q6V1X1 whole entry, species assumed): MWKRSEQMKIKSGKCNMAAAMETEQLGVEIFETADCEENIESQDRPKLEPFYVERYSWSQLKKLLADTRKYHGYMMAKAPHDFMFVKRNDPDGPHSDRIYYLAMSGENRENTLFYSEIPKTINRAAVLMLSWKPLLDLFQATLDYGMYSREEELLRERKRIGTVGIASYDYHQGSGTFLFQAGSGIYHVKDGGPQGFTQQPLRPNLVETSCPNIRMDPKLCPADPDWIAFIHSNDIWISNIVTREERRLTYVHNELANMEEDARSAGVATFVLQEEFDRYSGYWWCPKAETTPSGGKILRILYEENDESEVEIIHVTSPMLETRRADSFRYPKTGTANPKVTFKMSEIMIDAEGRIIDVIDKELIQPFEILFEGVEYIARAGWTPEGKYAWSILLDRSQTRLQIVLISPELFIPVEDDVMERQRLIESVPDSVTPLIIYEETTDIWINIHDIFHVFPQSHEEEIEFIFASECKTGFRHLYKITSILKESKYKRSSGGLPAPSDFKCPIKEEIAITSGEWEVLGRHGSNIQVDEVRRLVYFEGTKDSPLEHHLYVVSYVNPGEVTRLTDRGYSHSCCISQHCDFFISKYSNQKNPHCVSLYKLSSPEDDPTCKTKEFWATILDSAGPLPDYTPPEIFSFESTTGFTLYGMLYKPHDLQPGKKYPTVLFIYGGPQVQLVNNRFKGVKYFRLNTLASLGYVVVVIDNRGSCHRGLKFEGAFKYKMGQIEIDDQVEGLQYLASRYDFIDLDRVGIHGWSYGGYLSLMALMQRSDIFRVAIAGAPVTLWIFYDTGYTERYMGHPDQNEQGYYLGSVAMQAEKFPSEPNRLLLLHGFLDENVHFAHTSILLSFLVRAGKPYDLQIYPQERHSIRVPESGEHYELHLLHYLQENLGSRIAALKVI
Sequence of Ubiquitin carboxyl-terminal hydrolase 14 (P54578 whole entry): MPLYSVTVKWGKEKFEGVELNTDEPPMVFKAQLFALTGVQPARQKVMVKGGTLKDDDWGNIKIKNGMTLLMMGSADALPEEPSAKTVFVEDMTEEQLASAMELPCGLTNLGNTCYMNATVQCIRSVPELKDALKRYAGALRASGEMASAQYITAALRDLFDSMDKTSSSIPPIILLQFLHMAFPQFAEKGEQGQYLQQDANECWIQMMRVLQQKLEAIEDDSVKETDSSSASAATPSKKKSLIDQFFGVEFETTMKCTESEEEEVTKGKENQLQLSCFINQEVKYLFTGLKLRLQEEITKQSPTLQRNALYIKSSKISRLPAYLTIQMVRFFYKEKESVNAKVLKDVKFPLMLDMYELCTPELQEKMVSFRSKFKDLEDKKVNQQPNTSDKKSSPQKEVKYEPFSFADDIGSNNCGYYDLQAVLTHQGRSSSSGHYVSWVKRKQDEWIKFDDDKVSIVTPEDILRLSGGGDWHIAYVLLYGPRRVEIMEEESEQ
Sequence of Activated Protein C (P04070 212-461 limits assumed): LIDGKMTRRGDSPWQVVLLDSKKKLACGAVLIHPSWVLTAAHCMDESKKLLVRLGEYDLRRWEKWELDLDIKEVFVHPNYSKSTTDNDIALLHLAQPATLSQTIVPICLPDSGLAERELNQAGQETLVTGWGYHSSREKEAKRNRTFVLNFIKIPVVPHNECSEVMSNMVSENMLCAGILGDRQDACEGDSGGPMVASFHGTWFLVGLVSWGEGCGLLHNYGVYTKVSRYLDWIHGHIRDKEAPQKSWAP
Sequence of Activated Protein C (P04070 43-197 partner limits assumed): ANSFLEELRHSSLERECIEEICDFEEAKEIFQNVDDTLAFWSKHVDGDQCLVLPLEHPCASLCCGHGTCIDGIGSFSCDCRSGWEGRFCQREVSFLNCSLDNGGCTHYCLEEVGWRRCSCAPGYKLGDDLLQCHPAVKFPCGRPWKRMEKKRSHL
Sequence of serine protease NS3 (a.a. 3-181) from Hepatitis C virus genotype 2a (Q99IB8 1033-1211 limits assumed, other chains not shown): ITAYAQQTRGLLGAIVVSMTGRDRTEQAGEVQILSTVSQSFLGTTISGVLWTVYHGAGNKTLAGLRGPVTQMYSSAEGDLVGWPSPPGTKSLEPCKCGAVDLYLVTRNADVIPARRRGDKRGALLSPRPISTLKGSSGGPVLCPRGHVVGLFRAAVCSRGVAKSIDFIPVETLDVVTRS
Sequence of 5-HT1A (h) (P08908 whole entry): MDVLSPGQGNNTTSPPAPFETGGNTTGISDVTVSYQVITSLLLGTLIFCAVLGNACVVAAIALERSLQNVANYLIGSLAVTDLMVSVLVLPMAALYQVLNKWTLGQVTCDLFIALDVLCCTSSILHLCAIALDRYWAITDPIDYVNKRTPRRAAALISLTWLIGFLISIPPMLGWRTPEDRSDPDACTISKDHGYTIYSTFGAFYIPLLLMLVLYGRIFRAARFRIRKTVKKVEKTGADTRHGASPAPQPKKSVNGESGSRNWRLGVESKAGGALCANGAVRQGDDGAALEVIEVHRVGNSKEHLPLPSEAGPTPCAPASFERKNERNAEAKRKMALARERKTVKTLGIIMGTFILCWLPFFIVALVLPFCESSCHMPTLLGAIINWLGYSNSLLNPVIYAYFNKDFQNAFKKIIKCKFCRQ
Sequence of CB1 (h) (P21554 whole entry): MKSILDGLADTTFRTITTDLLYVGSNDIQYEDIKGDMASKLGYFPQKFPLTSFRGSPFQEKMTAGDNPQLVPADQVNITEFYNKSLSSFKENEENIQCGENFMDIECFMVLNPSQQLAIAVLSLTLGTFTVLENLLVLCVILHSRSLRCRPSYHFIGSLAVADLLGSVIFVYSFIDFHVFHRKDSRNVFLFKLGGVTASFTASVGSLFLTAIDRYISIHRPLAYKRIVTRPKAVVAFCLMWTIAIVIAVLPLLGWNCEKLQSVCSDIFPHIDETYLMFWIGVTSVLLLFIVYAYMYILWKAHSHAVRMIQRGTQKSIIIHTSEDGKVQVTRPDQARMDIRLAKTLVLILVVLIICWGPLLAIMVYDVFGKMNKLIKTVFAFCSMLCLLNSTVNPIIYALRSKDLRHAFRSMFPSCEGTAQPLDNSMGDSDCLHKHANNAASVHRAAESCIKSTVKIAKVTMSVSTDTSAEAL
Sequence of ETA (h) (P25101 21-427): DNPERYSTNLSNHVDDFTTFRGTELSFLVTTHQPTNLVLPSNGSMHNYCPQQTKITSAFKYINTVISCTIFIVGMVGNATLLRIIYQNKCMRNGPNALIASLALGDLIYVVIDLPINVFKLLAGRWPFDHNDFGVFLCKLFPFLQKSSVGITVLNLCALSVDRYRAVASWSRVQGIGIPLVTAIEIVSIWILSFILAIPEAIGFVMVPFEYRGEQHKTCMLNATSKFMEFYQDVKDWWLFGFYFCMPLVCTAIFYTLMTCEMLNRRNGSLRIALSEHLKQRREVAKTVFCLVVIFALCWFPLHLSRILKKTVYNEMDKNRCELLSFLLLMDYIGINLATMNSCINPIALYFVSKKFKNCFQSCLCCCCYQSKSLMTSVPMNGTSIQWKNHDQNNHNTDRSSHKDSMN
Sequence of 5-HT transporter (h) (P31645 whole entry): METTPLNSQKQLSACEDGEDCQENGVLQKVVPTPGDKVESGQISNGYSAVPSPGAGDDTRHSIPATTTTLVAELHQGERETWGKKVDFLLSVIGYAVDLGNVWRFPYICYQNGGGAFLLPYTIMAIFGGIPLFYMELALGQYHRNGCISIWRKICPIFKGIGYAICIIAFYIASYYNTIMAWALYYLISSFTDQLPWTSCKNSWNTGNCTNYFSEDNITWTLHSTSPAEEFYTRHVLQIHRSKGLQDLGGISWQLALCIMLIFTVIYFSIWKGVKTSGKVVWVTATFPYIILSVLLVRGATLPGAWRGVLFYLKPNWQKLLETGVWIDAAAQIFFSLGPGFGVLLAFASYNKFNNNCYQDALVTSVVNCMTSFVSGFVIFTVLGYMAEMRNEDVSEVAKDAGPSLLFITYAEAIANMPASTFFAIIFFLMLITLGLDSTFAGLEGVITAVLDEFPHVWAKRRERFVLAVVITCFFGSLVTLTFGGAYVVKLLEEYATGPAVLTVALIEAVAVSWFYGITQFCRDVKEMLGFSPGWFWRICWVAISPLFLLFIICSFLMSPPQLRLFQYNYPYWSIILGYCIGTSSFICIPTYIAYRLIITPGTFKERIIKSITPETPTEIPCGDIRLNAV
Sequence of V1a (h) (P37288 whole entry): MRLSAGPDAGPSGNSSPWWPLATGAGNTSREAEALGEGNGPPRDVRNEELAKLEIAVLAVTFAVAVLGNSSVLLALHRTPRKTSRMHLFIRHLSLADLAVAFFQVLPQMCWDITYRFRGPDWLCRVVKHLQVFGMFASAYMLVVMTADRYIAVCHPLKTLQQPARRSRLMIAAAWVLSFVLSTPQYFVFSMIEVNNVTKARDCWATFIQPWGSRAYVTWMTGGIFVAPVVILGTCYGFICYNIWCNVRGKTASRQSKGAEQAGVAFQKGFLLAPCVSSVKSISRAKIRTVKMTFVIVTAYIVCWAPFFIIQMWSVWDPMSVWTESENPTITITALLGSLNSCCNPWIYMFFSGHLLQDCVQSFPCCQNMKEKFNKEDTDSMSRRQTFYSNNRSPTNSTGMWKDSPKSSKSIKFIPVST
Sequence of D1 (h) (P21728 whole entry): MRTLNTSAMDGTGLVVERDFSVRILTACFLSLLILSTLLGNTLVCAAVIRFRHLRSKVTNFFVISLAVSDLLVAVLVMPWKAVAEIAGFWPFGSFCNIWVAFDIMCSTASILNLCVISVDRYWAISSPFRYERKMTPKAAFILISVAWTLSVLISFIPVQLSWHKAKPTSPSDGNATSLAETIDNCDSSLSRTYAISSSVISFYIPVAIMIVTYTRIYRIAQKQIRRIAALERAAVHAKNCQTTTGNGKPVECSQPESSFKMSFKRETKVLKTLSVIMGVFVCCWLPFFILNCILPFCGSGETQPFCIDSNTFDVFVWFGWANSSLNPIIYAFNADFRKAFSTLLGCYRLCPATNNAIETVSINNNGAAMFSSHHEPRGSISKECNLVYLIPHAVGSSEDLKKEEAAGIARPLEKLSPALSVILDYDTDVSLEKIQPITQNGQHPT

CCCCCC(=O)N[C@H]1CSCc2cc(CSCCNC(=O)CN3CCN(CC(=O)O)CCN(CC(=O)O)CCN(CC(=O)O)CC3)cc(c2)CSC[C@@H](C(=O)O)NC(=O)[C@H](Cc2ccccc2)NC(=O)[C@H](CCC(N)=O)NC(=O)[C@H]([C@@H](C)O)NC(=O)[C@@H]2CCCN2C(=O)[C@@H]2CCCN2C1=O [Compound 3BP-3554, Hex-[Cys(tMeBn(DOTA-AET))-Pro-Pro-Thr-Gln-Phe-Cys]-OH]
% Inhibition of Specific Binding [1]: 54% | Percentage inhibition (%) ([2]; 1 μM): −5% | Percentage inhibition (%) ([2]; 10 μM): −9% | Percentage inhibition (%) ([3]; 1 μM): −2% | Percentage inhibition (%) ([3]; 10 μM): −17% | Percentage inhibition (%) ([4]; 1 μM): 0% | Percentage inhibition (%) ([4]; 10 μM): −5% | inhibition at 10 µM (beta 2 (h)): 8% | inhibition at 10 µM (CB1 (h)): -7% | inhibition at 10 µM (CB2 (h)): -5% | inhibition at 10 µM (D1 (h)): 7% | inhibition at 10 µM (ETA (h)): 6% | inhibition at 10 µM (M1 (h)): 8% | inhibition at 10 µM (M2 (h)): 7% | inhibition at 10 µM (M3 (h)): 1% | inhibition at 10 µM [5]: -2% | inhibition at 10 µM (mu (MOP) (h)): -10% | inhibition at 10 µM (5-HT1A (h)): -5% | inhibition at 10 µM (5-HT3 (h)): 4% | inhibition at 10 µM (GR (h)): 0% | inhibition at 10 µM (V1a (h)): 1% | inhibition at 10 µM [6]: -5% | inhibition at 10 µM (5-HT transporter (h)): -8% | inhibition at 10 µM (COX2(h)): -22% | inhibition at 1 µM (Activated Protein C): -11% | inhibition at 10 µM (Activated Protein C): 1% | inhibition at 1 µM (Caspase-3): -2% | inhibition at 10 µM (Caspase-3): -1% | inhibition at 1 µM [7]: 1% | inhibition at 10 µM [7]: 2% | inhibition at 1 µM (DPP8): 1% | inhibition at 10 µM (DPP8): 11% | inhibition at 1 µM [8]: -13% | inhibition at 10 µM [8]: -40% | inhibition at 1 µM [9]: 3% | inhibition at 10 µM [9]: 2%

CCCCCC(=O)N[C@H]1CSCc2cc(cc(CN3CCN(C(=O)CN4CCN(CC(=O)O)CCN(CC(=O)O)CCN(CC(=O)O)CC4)CC3)c2)CSC[C@@H](C(=O)N[C@@H](CC(=O)O)C(N)=O)NC(=O)[C@H](Cc2ccccc2)NC(=O)[C@H](CCC(N)=O)NC(=O)[C@H]([C@@H](C)O)NC(=O)[C@@H]2CCCN2C(=O)[C@@H]2CCCN2C1=O [Compound 3BP-3407, Hex-[Cys(tMeBn(DOTA-PP))-Pro-Pro-Thr-Gln-Phe-Cys]-Asp-NH2] (Hexanoyl-CPPTQFCD-NH2; linker 1-7 via X1)
% Inhibition of Specific Binding [1]: 42% | Percentage inhibition (%) ([2]; 1 μM): 1% | Percentage inhibition (%) ([2]; 10 μM): 5% | Percentage inhibition (%) ([3]; 1 μM): 1% | Percentage inhibition (%) ([3]; 10 μM): −6% | Percentage inhibition (%) ([4]; 1 μM): 0% | Percentage inhibition (%) ([4]; 10 μM): 2% | inhibition at 10 µM (beta 2 (h)): 4% | inhibition at 10 µM (CB1 (h)): 5% | inhibition at 10 µM (CB2 (h)): 2% | inhibition at 10 µM (D1 (h)): 0% | inhibition at 10 µM (ETA (h)): -18% | inhibition at 10 µM (M1 (h)): 6% | inhibition at 10 µM (M2 (h)): -4% | inhibition at 10 µM (M3 (h)): 10% | inhibition at 10 µM [5]: -8% | inhibition at 10 µM (mu (MOP) (h)): 2% | inhibition at 10 µM (5-HT1A (h)): -3% | inhibition at 10 µM (5-HT3 (h)): 2% | inhibition at 10 µM (GR (h)): -2% | inhibition at 10 µM (V1a (h)): 16% | inhibition at 10 µM [6]: -8% | inhibition at 10 µM (5-HT transporter (h)): -3% | inhibition at 10 µM (COX2(h)): -14% | inhibition at 1 µM (Activated Protein C): 5% | inhibition at 10 µM (Activated Protein C): 8% | inhibition at 1 µM (Caspase-3): 1% | inhibition at 10 µM (Caspase-3): -2% | inhibition at 1 µM [7]: -1% | inhibition at 10 µM [7]: 5% | inhibition at 1 µM (DPP8): 1% | inhibition at 10 µM (DPP8): 5% | inhibition at 1 µM [8]: 0% | inhibition at 10 µM [8]: -2% | inhibition at 1 µM [9]: 3% | inhibition at 10 µM [9]: 2%
